Test results taken from article PMC10920779, “Targeting P2Y14R protects against necroptosis of intestinal epithelial cells through PKA/CREB/RIPK1 axis in ulcerative colitis” (Nature Communications, 2024).
Where “and” joins values, the source holds several entries; their conditions need not be identical. Equal values may be shown once.

Legend:
Type in all cases: in vivo, mouse
[1] = system: DSS-induced colitis in mice; experiment: DSS-induced acute colitis in WT mice, P2Y14R antagonist treatment (body weight, DAI, colon length, H&E, tight junction staining, TEM); design: DAI: scale not given here; settings: for DAI / Weight (%): DSS-treated mice
Excerpt: (§1) Male, 7-8-week-old, P2Y14R^fl/fl Vil-cre (P2Y14R^∆IEC), P2Y14R^fl/fl Lyz2-cre and WT mice with C57BL/6 J background were used to establish experimental (acute) colitis model. P2Y14R^fl/fl C57BL/6 J mice were used as control for P2Y14R^fl/fl Vil-cre (P2Y14R^∆IEC) and P2Y14R^fl/fl Lyz2-cre mice. WT C57BL/6 J mice were used for the pharmacological study of HDL-16. Colitis was induced by dextran sodium sulfate (DSS; 36-50 kDa; 3% w/v; MP Biomedicals, Solon, Ohio, USA), added to the drinking water ad libitum for 7 days. Control mice received standard drinking water. The Disease Activity Index (DAI) was evaluated daily as described previously. After 7 days of DSS treatment, mice were euthanized by carbon dioxide inhalation and the colons were measured and then processed for histological analyses, homogenized to extract protein or RNA.
The DSS group and the P2Y14R^△IEC + DSS group were rectally administered with 100 μl vehicle (saline with 0.1% DMSO). The low-dose group of mice was given 10 μM HDL-16, 100 μl per mouse, while the high-dose group was given 20 μM HDL-16, 100 μl per mouse.
For TEM, harvest fresh tissue blocks quickly within 1-3 minutes. […] Then tissues avoid light post fixed in 1% OsO4 in PBS for 2 h at room temperature. […] The samples were moved into a 65°C oven to polymerize for more than 48 h. Ultrathin sections were cut to 60-80 nm thin with an ultramicrotome UCT6 (Leica Microsystems, Vienna) and placed on 150 meshes cuprum grids (formvar carbon coated Cu grids) with formvar film. […] Micrographs were obtained with a Jeol JEM 1400 plus electron microscope (Jeol, USA) operating at 80 kV.
For histological assessment of colitis, colon specimens were fixed in 4% paraformaldehyde (PFA) and embedded in paraffin. Five-micrometer tissue sections were stained with H&E and examined for evidence of colitis as described previously. After the paraffin sections conventional dewaxing to water, put the sections into Hematoxylin solution for 3-5 min and treat the sections with Hematoxylin Differentiation solution. […] Finally, dehydrated the sections with gradient alcohol and xylene, and sealed with neutral gum. Images were captured with a microscope (BX53, Olympus).
Immunofluorescence staining was performed using paraffin-embedded tissues as mentioned before. For immunofluorescence, the paraffin slides were deparaffinized, rehydrated, blocked and treated according to a standard protocol. […] All slides were incubated with DAPI (S2110, Solarbio) for 10 min to show the location of the nucleus. Images were captured with a confocal microscope (LSM 800, Zeiss).

[2] = system: DSS-induced colitis in P2Y14R△IEC mice; experiment: DSS-induced colitis in P2Y14R△IEC mice treated with HDL-16 or PPTN; design: DAI: scale not given here; settings: for DAI / Weight: P2Y14R fl/fl vil-cre mice + DSS
Excerpt: as §1
The DSS group and the P2Y14R^△IEC + DSS group were rectally administered with 100 μl vehicle (saline with 0.1% DMSO). The low-dose group of mice was given 10 μM HDL-16, 100 μl per mouse, while the high-dose group was given 20 μM HDL-16, 100 μl per mouse. […]
immunoblotting with corresponding antibodies in the IECs from DSS treated mice with HDL-16 or […]
the entire experimental period. d Body weight change and disease activity index evaluation of mice change during the disease process (n = 6 mice per group). e Effects of P2Y14R antagonists on P2Y14R△IEC mice mucosal barrier function as measured by serum levels of FITC-dextran based on intestinal permeability methods (n = 6 mice per group). f The length of colons from mice 7 days after DSS treatment (n = 6 mice per group). g The H&E staining in the colon tissues of DSS-treated mice (Scale bar = 200 μm). h The immunofluorescent images of colon tissues stained with Claudin-1, Occludin and ZO-1, the principal components of tight junction (Scale bar = 200 μm). i Phosphorylation MLKL as well as its protein levels were analyzed by immunoblotting with corresponding antibodies in colon tissues (n = 5 mice per group). The data represent the mean ± SD for b, e, f and i, the data represent the mean ± SEM for d. The p-values were determined by One-way analysis of variance (ANOVA) with Tukey multiple comparison test for e, f, i, and two-way analysis of variance (ANOVA) with Šídák's multiple comparisons test for b and d. For a, g and h, […]

[3] = system: CREB binding to Ripk1 promoter; experiment: ChIP-qPCR with anti-CREB on Ripk1 gene promoter in IECs of experimental colitis mice; settings: for CREB binding Ripk1 promoter: DSS-treated mice, Figure 7j
Method: Total RNA was extracted from cells or colonic tissues using Trizol (Thermo) under the manufacturer’s instructions. First strand cDNA was synthesized using the PrimeScript RT Reagent Kit (480, Abm). SYBR Green Master Mix reagents (Q331-02, Vazyme) and primer mixtures (Table S1) were used for the real-time PCR. The ChIP assays were performed using EZ ChIP kit (17-371, Millipore). The procedure was as described in the kit provided by the manufacturer. Briefly, isolated IECs were fixed by 1% formaldehyde, and fragmented by sonication. CREB was then used for immunoprecipitation. After washing and reverse-crosslinking, the precipitated DNA was amplified by primers and quantified by the qPCR. Primer sequences can be found in Supplementary Table 1.

[4] = system: mucosal barrier function; experiment: Intestinal permeability, serum FITC-dextran in DSS-treated mice; settings: high-dose, 20 μM, 100 μl per mouse
Method: The mice treated with DSS for 7 days were fasted for 6 h, given FITC-dextran (3-5 kDa, FD4, sigma) intragastrically at a dose of 60 mg kg^−1. After 3 h, hemolysis-free sera were collected and the fluorescence intensity of serum was read by a multi-mode microplate reader (excitation, 488 nm; emission, 520 nm).

[5] = high-dose, 20 μM, 100 μl per mouse
[6] = HDL-16-H (high dose), Day 1, individual mice
[7] = HDL-16-H (high dose), Day 2, individual mice
[8] = HDL-16-H (high dose), Day 3, individual mice
[9] = HDL-16-H (high dose), Day 4, individual mice
[10] = HDL-16-H (high dose), Day 5, individual mice
[11] = HDL-16-H (high dose), Day 6, individual mice
[12] = HDL-16-H (high dose), Day 7, individual mice
[13] = HDL-16-L (low dose), Day 1, individual mice
[14] = HDL-16-L (low dose), Day 2, individual mice

In the case of Brc1ccc(NCc2nc3ccccc3o2)cc1 [HDL-16], the DAI ([1]; group -H (high dose), Day 1) is reported as 0, the “Weight (%)” value ([1]; group -H (high dose), Day 1) is reported as 95.5056% and 101.124% and 106.742% and the “Weight (%)” value ([1]; group -H (high dose), Day 2) is reported as 95.5056% and 101.124% and 89.8876% and 106.742%. For the same compound, the “Weight (%)” value ([1]; group -H (high dose), Day 3) was 100% and 94.1176% and 94.4444% and 94.7368%, the “Weight (%)” value ([1]; group -H (high dose), Day 4) was 94.1176% and 88.2353% and 94.4444% and 88.8889% and 94.7368% and the “Weight (%)” value ([1]; group -H (high dose), Day 5) was 94.1176% and 88.2353% and 94.4444% and 83.3333% and 89.4737%. The “Weight (%)” value ([1]; group -H (high dose), Day 6) was 88.2353% and 82.3529% and 88.8889% and 83.3333% and 84.2105%, the “Weight (%)” value ([1]; group -H (high dose), Day 7) was 88.2353% and 82.3529% and 88.8889% and 77.7778% and 78.9474% and the DAI ([1]; group -L (low dose), Day 1) was 0. For the same compound, the “Weight (%)” value ([1]; group -L (low dose), Day 1) was 100.935% and 95.3271% and 106.542%, the “Weight (%)” value ([1]; group -L (low dose), Day 2) was 100.935% and 95.3271% and 89.7196% and 106.542% and the “Weight (%)” value ([1]; group -L (low dose), Day 3) was 94.4444% and 94.1176% and 100%. For the same compound, the “Weight (%)” value ([1]; group -L (low dose), Day 4) was 100% and 94.4444% and 94.1176% and 94.7368%, the “Weight (%)” value ([1]; group -L (low dose), Day 5) was 100% and 94.4444% and 88.2353% and 89.4737% and 88.8889% and 94.1176% and the “Weight (%)” value ([1]; group -L (low dose), Day 6) was 100% and 94.4444% and 88.2353% and 89.4737%. The “Weight (%)” value ([1]; group -L (low dose), Day 7) was 94.4444% and 88.8889% and 94.1176% and 84.2105% and 88.2353%, the Colitis symptoms ([1]; daily treatment, 3% DSS mice) was “significantly suppressed colitis symptoms” and the “H&E staining: inflammatory infiltration and tissue damage” value [1, 5] was “improved DSS-induced inflammatory infiltration and tissue damage”. The “Tight junction protein expression (immunofluorescence)” value [1, 5] was “stabilized the expression of tight junction protein Claudin-1, Occludin and ZO-1”, the “Body weight loss and DAI vs DSS-exposed mice” value ([1]; high-dose, 20 μM, 100 μl per mouse, rectal, daily, 3% DSS 7 days) was “dramatically less body weight loss and lower DAI” and the “Colon length vs mice treated with DSS only” value ([1]; high-dose, 20 μM, 100 μl per mouse, rectal, 3% DSS 7 days) was “significantly longer”. For the same compound, the “Comparison with the DSS-treated group (colitis parameters)” value ([1]; low-dose, 10 μM, 100 μl per mouse, rectal, 3% DSS 7 days) was “no significant difference”, the “Weight loss, diarrhea, rectal bleeding, mucosal barrier injury, inflammatory cell infiltration in P2Y14R△IEC mice” value ([2]; DSS-fed P2Y14R△IEC mice) was “did not influence DSS-fed induced weight loss” and the “p-MLKL in P2Y14R△IEC mice (western blot)” value ([2]; DSS-fed P2Y14R△IEC mice, colon tissues) was “did not affect DSS-induced upregulation of p-MLKL”. The DAI [2, 6] was 0, the Weight [2, 6] was 100% and the DAI [2, 7] was 0. For the same compound, the Weight [2, 7] was 100%, the DAI [2, 8] was 0 (5×) and 1 and the Weight [2, 8] was 95% (2×) and 100% (4×). The DAI [2, 9] was 1 (5×) and 0, the Weight [2, 9] was 95% (3×) and 100% (2×) and 96% and the DAI [2, 10] was 1 (2×) and 0 and 4 (2×) and 2. The Weight [2, 10] was 91% (2×) and 95% (2×) and 100% and 96%, the DAI [2, 11] was 1 (3×) and 0 and 4 and 6 and the Weight [2, 11] was 91% (3×) and 95% (2×) and 100%. The DAI [2, 12] was 1 (2×) and 0 and 2 and 6 and 8, the Weight [2, 12] was 91% (4×) and 95% and 100% and the DAI [2, 13] was 0. For the same compound, the Weight [2, 13] was 100%, the DAI [2, 14] was 0 (5×) and 1 and the Weight [2, 14] was 100%. The Weight ([2]; HDL-16-L (low dose), Day 3, individual mice) was 100% (5×) and 96%, the Weight ([2]; HDL-16-L (low dose), Day 4, individual mice) was 95% (4×) and 100% and 96% and the Weight ([2]; HDL-16-L (low dose), Day 5, individual mice) was 95% (4×) and 100% and 91%. The Weight ([2]; HDL-16-L (low dose), Day 6, individual mice) was 95% (2×) and 100% and 91% and 90% (2×), the Weight ([2]; HDL-16-L (low dose), Day 7, individual mice) was 95% (3×) and 100% and 91% and 90% and the “Improvement of DSS colitis in P2Y14R△IEC mice” value ([2]; daily administration, DSS feeding P2Y14R△IEC mice) was “barely improvement”. The “CREB binding Ripk1 promoter” value ([3]; group -H (high dose)) was 68.32% and 67.71% and 73.03%, the “CREB binding Ripk1 promoter” value ([3]; group -L (low dose)) was 52.80% and 57.62% and 56.66% and the “Binding between CREB and Ripk1 promoter (ChIP)” value ([3]; IECs of DSS-induced colitis mice) was “promoted the binding between CREB and Ripk1 promoter”. For the same compound, the “Serum level of FITC-dextran in DSS-treated mice relative to treated group” value [4] was “significantly higher”.
